Structures are written as SMILES.

One experiment has as its target T1, CD80/PD-L1 binding (Homo sapiens, UniProt Q9NZQ7).
T1 construct: purchased Sino Biological Inc. 10084-H02H-100 (PD-L1-Fc); 10698-H08H-100 (His-CD80)
The experiment can be described thus: HTRF inhibition of CD80/PD-L1 binding in vitro. The settings on record: His-CD80 100 nM, PD-L1-Fc 2 nM, read-out: IC50 inhibiting CD80/PD-L1 binding in vitro. From the text: In addition to PD-1, PD-L1 can also exert immunosuppressive activity by binding to CD80. Similarly, in vitro experiments of binding or binding inhibition of CD80 and PD-L1 can also be measured by homogeneous time-resolved fluorescence (HTRF). When the anti-hFc-Eu^3+ antibody and anti-His-XL665 antibody were bound to the hFC tag fused to PD-L1 and the His tag fused to CD80 respectively, and excited with a 320 nm wavelength laser, the binding of PD-L1 and CD80 enabled energy to be transferred from the Eu element to the XL665 fluorescein, which was excited to emit light. When the inhibitor of the interaction between PD-L1 and CD80 was added, the combination of the two was destroyed, so that the distance between Eu and XL665 was far away, the energy cannot be transferred, and XL665 would not be excited.
Recombinant human CD80 protein with His tag (His-CD80 protein, Cat #: 10698-H08H-100), and recombinant human PD-L1-Fc fusion protein (PD-L1-Fc fusion protein, Cat #: 10084-H02H-100) were purchased from Sino Biological Inc., anti-hFc-Eu^3+ antibody and anti-His-XL665 antibody were purchased from Cisbio Company, and other related reagents such as dilution buffer (Diluent buffer 5, Cat #: 62DL5DDC), detection buffer (PPI-Europium detection buffer, Cat #: 61DB9RDF) were purchased from Cisbio Company. Fluorescence detection instrument Tecan (Spark 10 M) was purchased from Switzerland Tecan Company.
(1) Experimental preparation: The test compound was diluted with dilution buffer into different concentration gradients (the highest final concentration in 20 μL final reaction system was 10 μM), His-CD80 protein was diluted to 800 nM (the final concentration in 20 μL final reaction system was 100 nM), and the PD-L1-Fc fusion protein was diluted to 16 nM (final concentration was 2 nM). The anti-His-XL665 antibody and anti-hFc-Eu^3+ antibody were respectively diluted 20 times and 100 times using the detection buffer according to the reagent requirements.
(2) 5 μL of test compound, 2.5 μL of Hid-CD80 protein and 2.5 μL of […] solution were mixed, and incubated at room temperature for 15 min. Then the system was added with 5 μL of anti-His-XL665 antibody and 5 μL of anti-hFc-Eu^3+ antibody, incubated for another 3 h, and then detected.
(3) When detecting the reaction, a control group was provided, including a 0% inhibition positive control without adding test compounds and a 100% inhibition negative control without adding CD-80 protein. All detections were performed with duplicates.
(4) The fluorescence signal of each well was measured using a fluorescence detector Tecan (Spark 10M) at an excitation wavelength of 320 nm, and emission wavelengths of 620 nm and 665 nm, respectively. The intensity of the mutual binding of CD80 and PD-L1 referred to the ratio of fluorescence signals Em665/Em620.
(5) The binding inhibition rate of the test compound was calculated as follows: Inhibition rate (%)=[1−(Fluorescence signal ratio of detection well-fluorescence signal ratio of 100% inhibition negative control)]/(fluorescence signal ratio of 0% inhibition positive control-fluorescence signal ratio of 100% inhibition negative control)×100%. After calculating the inhibition rate on CD80/PD-L1 binding of the test compounds with different concentration gradients, the 50% inhibitory concentration (IC50) was calculated.

Another experiment has as its target T2, PD-1/PD-L1 binding (Homo sapiens, UniProt Q9NZQ7).
T2 construct: purchased Sino Biological Inc. 10084-H02H-100 (PD-L1-Fc); 10377-H08H-50 (His-PD-1)
The experiment can be described thus: HTRF inhibition of PD-1/PD-L1 binding in vitro. The settings on record: His-PD-1 100 nM, PD-L1-Fc 2 nM, read-out: IC50 inhibiting PD-1/PD-L1 binding in vitro. An excerpt: Homogeneous Time-Resolved Fluorescence (HTRF): This method used the recombinant human PD-L1 protein fused to express the hFc tag and the recombinant human PD-1 protein fused to express the His tag, both of which were interacting ligands and receptors. When the anti-hFc antibody containing Eu element chelation marker and the anti-His antibody labeled with XL665 fluorescein were bound with the above two corresponding labels, and excited by a laser with a wavelength of 320 nm, the ligand-receptor binding enabled the energy to be transferred from the Eu element to the XL665 fluorescein, which was excited to emit light at a wavelength of 665 nm. However, when an inhibitor of the interaction between PD-L1 and PD-1 was added, the binding of the ligand to the receptor was destroyed, so that the distance between Eu and XL665 was far away, the energy cannot be transferred, and XL665 would not be excited.
Recombinant human PD-1 protein with His tag (His-PD-1 protein, Cat #: 10377-H08H-50), and recombinant human PD-L1-Fc fusion protein (PD-L1-Fc fusion protein, Cat #: 10084-H02H-100) were purchased from Sino Biological Inc., […] and anti-His-XL665 antibody were purchased from Cisbio Company, and other related reagents such as dilution buffer (Diluent buffer 5, Cat #: 62DL5DDC), detection buffer (PPI-Europium detection buffer, Cat #: 61DB9RDF) were purchased from Cisbio Company. Fluorescence detection instrument Tecan (Spark 10 M) was purchased from Switzerland Tecan Company.
(1) Experimental preparation: The test compound was diluted with dilution buffer into different concentration gradients (the highest final concentration in 20 μL final reaction system was 10 μM), His-PD-1 protein was diluted to 800 nM (the final concentration in 20 μL final reaction system was 100 nM), and the PD-L1-Fc fusion protein was diluted to 16 nM (final concentration was 2 nM). The anti-His-XL665 antibody and anti-hFc-Eu^3+ antibody were respectively diluted 20 times and 100 times using the detection buffer according to the reagent requirements.
(2) 5 μL of test compound, 2.5 μL of PD-L1-Fc fusion protein and 2.5 μL of His-PD-1 protein solution were mixed, and incubated at room temperature for 15 min. Then the system was added with 5 μL of anti-His-XL665 antibody and 5 μL of anti-hFc-Eu^3+ antibody, incubated for another 3 h, and then detected.
(3) When detecting the reaction, a control group was also provided, including a 0% inhibition positive control without adding test compounds and a 100% inhibition negative control without adding PD-1 protein. All detections were performed with duplicates.
(4) The fluorescence signal of each well was measured using a fluorescence detector Tecan (Spark 10M) at an excitation wavelength of 320 nm, and emission wavelengths of 620 nm and 665 nm, respectively. The intensity of the mutual binding of PD-1 and PD-L1 referred to the ratio of fluorescence signals Em665/Em620.
(5) The binding inhibition rate of the test compound was calculated as follows: Inhibition rate (%)=[1−(Fluorescence signal ratio of detection well-fluorescence signal ratio of 100% inhibition negative control)]/(fluorescence signal ratio of 0% inhibition positive control-fluorescence signal ratio of 100% inhibition negative control)×100%. After calculating the inhibition rate on PD-1/PD-L1 binding of the test compounds with different concentration gradients, the 50% inhibitory concentration (IC50) was calculated.

T2 sequence (Q9NZQ7 19-239 limits assumed): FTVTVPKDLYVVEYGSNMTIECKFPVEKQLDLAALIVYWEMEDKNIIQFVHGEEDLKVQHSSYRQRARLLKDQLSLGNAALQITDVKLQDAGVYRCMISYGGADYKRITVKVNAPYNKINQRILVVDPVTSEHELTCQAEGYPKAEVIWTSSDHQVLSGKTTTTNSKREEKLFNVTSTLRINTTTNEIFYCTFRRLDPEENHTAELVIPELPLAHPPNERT
T1 sequence (Q9NZQ7 19-239 limits assumed): as above

As to `[2H]C([2H])([2H])OCC12CCC(CCN3CCc4c(nc(C(=O)Nc5cccc(-c6cccc(NC(=O)c7nc8c(n7C)CCN(CCC79CCC(C(=O)O)(CC7)C9)C8)c6Cl)c5F)n4C)C3)(CC1)C2` (single isomer, unassigned) [Compound I-2, 4-(2-(2-((2-chloro-2′-fluoro-3′-(5-(2-(4-((methoxy-d3)methyl)bicyclo[2.2.1]heptane-1-y 1)ethyl)-1-methyl-4,5,6,7-tetrahydro-1H-imidazo[4,5-c]pyridine-2-carboxamido)-[1,1′-biphenyl]-3-yl)carbamoyl)-1-methyl-1,4,6,7-tetrahydro-5H-imidazo[4,5-c]pyridin-5-yl)ethyl)bicyclo[2.2.1]heptane-1-carboxylic acid], the IC50 at CD80/PD-L1 binding is 1.09 nM; on PD-1/PD-L1 binding, 1.52 nM.
Take `[2H]C([2H])([2H])OCC12CCC(CCN3CCc4c(nc(C(=O)Nc5cccc(-c6cccc(NC(=O)c7nc8c(n7C([2H])([2H])[2H])CCN(CCC79CCC(C(=O)O)(CC7)C9)C8)c6Cl)c5F)n4C([2H])([2H])[2H])C3)(CC1)C2` (single isomer, unassigned) [Compound I-7, 4-(2-(2-((2-chloro-2′-fluoro-3′-(5-(2-(4-((methoxy-d3)methyl)bicyclo[2.2.1]heptane-1-yl)ethyl)-1-(methyl-d3)-4,5,6,7-tetrahydro-1H-imidazo[4,5-c]pyridine-2-carboxamido)-[1,1′-biphenyl]-3-yl)carbamoyl)-1-(methyl-d3)-1,4,6,7-tetrahydro-5H-imidazo[4,5-c]pyridin-5-yl)ethyl)bicyclo[2.2.1]heptane-1-carboxylic acid]: the IC50 on CD80/PD-L1 binding is 1.94 nM; on PD-1/PD-L1 binding, 1.38 nM.
Consider `[2H]C([2H])([2H])n1c(C(=O)Nc2cccc(-c3cccc(NC(=O)c4nc5c(n4C([2H])([2H])[2H])CCN(CCC46CCC(C(=O)O)(CC4)C6)C5)c3Cl)c2F)nc2c1CCN(CCC13CCC(COC)(CC1)C3)C2` (single isomer, unassigned) [Compound I-8, 4-(2-(2-((2-chloro-2′-fluoro-3′-(5-(2-(4-(methoxymethyl)bicyclo[2.2.1]heptane-1-yl)ethyl)-1-(methyl-d3)-4,5,6,7-tetrahydro-1H-imidazo[4,5-c]pyridine-2-carboxamido)-[1,1′-biphenyl]-3-yl)carbamoyl)-1-(methyl-d3)-1,4,6,7-tetrahydro-5H-imidazo[4,5-c]pyridin-5-yl)ethyl)bicyclo[2.2.1]heptane-1-carboxylic acid], for which the IC50 on CD80/PD-L1 binding turned out to be 1.77 nM; at PD-1/PD-L1 binding it was 1.63 nM.
For `[2H]c1c([2H])c(NC(=O)c2nc3c(n2C)CCN(CCC24CCC(COC([2H])([2H])[2H])(CC2)C4)C3)c(F)c(-c2c([2H])c([2H])c([2H])c(NC(=O)c3nc4c(n3C)CCN(CCC35CCC(C(=O)O)(CC3)C5)C4)c2Cl)c1[2H]` (single isomer, unassigned) [Compound I-14, 4-(2-(2-((2-chloro-2′-fluoro-3′-(5-(2-(4-((methoxy-d3)methyl)bicyclo[2.2.1]heptane-1-y 1)ethyl)-1-methyl-4,5,6,7-tetrahydro-1H-imidazo[4,5-c]pyridine-2-carboxamido)-[1,1′-biphenyl]-3-yl-4,4′,5,5′,6,6′-d6)carbamoyl)-1-methyl-1,4,6,7-tetrahydro-5H-imidazo[4,5-c]pyridin-5-yl)ethyl)bicyclo[2.2.1]heptane-1-carboxylic acid] the same measures were 0.37 nM and 0.51 nM.
With `[2H]C([2H])([2H])OCC12CCC(CCN3CCc4c(nc(C(=O)Nc5cccc(-c6cccc(NC(=O)c7nc8c(n7C)CCN(CCC79CCC(C(=O)O)(CC7)C9)C8)c6Cl)c5Cl)n4C)C3)(CC1)C2` [Compound I-1, 4-(2-(2-((2,2′-dichloro-3′-(5-(2-(4-((methoxy-d3)methyl)bicyclo[2.2.1]heptane-1-yl)ethyl)-1-methyl-4,5,6,7-tetrahydro-1H-imidazo[4,5-c]pyridine-2-carboxamido)-[1,1′-biphenyl]-3-yl)carbamoyl)-1-methyl-1,4,6,7-tetrahydro-5H-imidazo[4,5-c]pyridin-5-yl)ethyl)bicyclo[2.2.1]heptane-1-carboxylic acid], the figures for the IC50 at CD80/PD-L1 binding and at PD-1/PD-L1 binding were 0.58 nM and 0.72 nM, respectively.
On to `[2H]C([2H])([2H])OCC12CCC(CCN3CCc4c(nc(C(=O)Nc5cccc(-c6cccc(NC(=O)c7nc8c(n7C)CCN(CCC79CCC(C(=O)O)(CC7)C9)C8)c6C)c5Cl)n4C)C3)(CC1)C2` [Compound I-3, 4-(2-(2-((2′-chloro-3′-(5-(2-(4-((methoxy-d3)methyl)bicyclo[2.2.1]heptane-1-yl)ethyl)-1-methyl-4,5,6,7-tetrahydro-1H-imidazo[4,5-c]pyridine-2-carboxamido)-2-methyl-[1,1′-biphenyl]-3-yl)carbamoyl)-1-methyl-1,4,6,7-tetrahydro-5H-imidazo[4,5-c]pyridin-5-yl)ethyl)bicyclo[2.2.1]heptane-1-carboxylic acid], for which the values for the IC50 at CD80/PD-L1 binding and on PD-1/PD-L1 binding were 1.78 nM and 2.9 nM, respectively.

Source of the values: patent US20260234164A1, “BIPHENYL COMPOUND AS IMMUNOMODULATOR, PREPARATION METHOD THEREFOR AND USE THEREOF” (SHENZHEN CHIPSCREEN BIOSCIENCES CO., LTD., priority 2021, published 2026).
